Peptide text beside a SMILES is read from it.
System: T-cells in HAM/TSP patient PBMC culture
Experiment: Ex vivo spontaneous T-cell proliferation assay using HAM/TSP peripheral blood
Type: cell-based, human
Conditions: FIG. 4D
Protocol: Proliferation assays were performed on HAM/TSP patient blood samples with and without the addition of BNZ-γ. These assays evaluated the ability of BNZ-γ to block the function of cytokines, such as IL-2 and IL-15, present in the ex vivo HAM/TSP patient blood culture and prevent spontaneous T-cell proliferation in these samples.
In an ex vivo spontaneous T-cell proliferation assay, PBMC from HAM/TSP patient was cultured at 1×10(6) cells per well of a 96 well plate in RPMI-10% FCS. Increasing concentrations of BNZ-γ peptide were added to each well. As a control, an irrelevant peptide was used in similar fashion. The cells were incubated in a 37° C. CO2 incubator for 3, 4, and 6 days. The amount of 1 uCi of ^3H-thymidine was added to the cells. After an additional 6 hour incubation, cells were harvested their proliferation rate was measured. As indicated in FIG. 4A-FIG. 4D, BNZ-γ peptide inhibits the spontaneous proliferation of T-cells in HAM/TSP culture at a concentration of about 1 ug/ml.
Other immunological markers were additionally measured in this assay. The percentage of the viral specific CD8 cells was measured during the ex vivo culture using viral protein tetramers. The population of CD4+CD25+ cells, a marker of T-cell activation, as well as Ki67 staining, a marker of T-cell proliferation, was monitored in a flow cytometry assay.

CC[C@H](C)[C@H](N)C(=O)N[C@@H](CCCCN)C(=O)N[C@@H](CCC(=O)O)C(=O)N[C@@H](Cc1ccccc1)C(=O)N[C@@H](CC(C)C)C(=O)N[C@@H](CCC(N)=O)C(=O)N[C@@H](CCCNC(=N)N)C(=O)N[C@@H](Cc1ccccc1)C(=O)N[C@H](C(=O)N[C@@H](Cc1c[nH]cn1)C(=O)N[C@H](C(=O)N[C@H](C(=O)N[C@@H](CCC(N)=O)C(=O)N[C@@H](CO)C(=O)N[C@H](C(=O)N[C@H](C(=O)N[C@@H](CC(N)=O)C(=O)N[C@H](C(=O)N[C@@H](CO)C(=O)O)[C@@H](C)O)[C@@H](C)CC)[C@@H](C)CC)C(C)C)[C@@H](C)CC)[C@@H](C)CC [BNZ-γ, I-K-E-F-L-Q-R-F-I-H-I-V-Q-S-I-I-N-T-S] (H-IKEFLQRFIHIVQSIINTS-OH)
percent of live cells by Guava staining: not impacted
